Laboratory results from patent US4705900A, “Insecticidal alkenes” (Imperial Chemical Industries PLC, priority 1985, dated 1987).

Tests used:
Diabrotica balteata = assay: mortality of rootworm larvae (DB), residual test; type: in vivo, Diabrotica balteata (rootworm larvae); details: filter paper/maize seed, 3 days
Procedure: (§1) The activity of the Product was determined using a variety of insect pests. The Product was used in the form of liquid preparations containing 500 or 100 parts per million (ppm) by weight of the Product. The preparations were made by dissolving the Product in acetone and diluting the solutions with water containing 0.01% by weight of a wetting agent sold under the trade name "LISSAPOL" NX until the liquid preparations contained the required concentration of the Product. "Lissapol" is a Registered Trade Mark.
(§2) The test procedure adopted with regard to each pest was basically the same and comprised supporting a number of the pests on a medium which was usually a host plant or a foodstuff on which the pests feed, and treating either or both the pests and the medium with the preparations. The mortality of the pests was then assessed at periods usually varying from one to three days after the treatment.
(§3) The results of the tests are given in Table IV for each of the Products, at the rate in parts per million given in the second column as a grading of mortality designated as A, B or C wherein A indicates 80-100% mortality or knockdown, B indicates 50-79% mortality or knockdown and C indicates less than 50% mortality or knockdown.
(§4) In Table IV the pest organism used is designated by a letter code and the pests species, the support medium or food, and the type and duration of test is given in Table III.

Musca domestica [1] = assay: mortality of houseflies (MD), contact test; type: in vivo, Musca domestica (houseflies - adults); details: cotton wool/sugar, 1 day
Procedure: as §1, §2, §3, §4

Nilaparvata lugens = assay: mortality of green leaf hopper (NL), contact test; type: in vivo, Nilaparvata lugens (brown planthopper); details: cabbage leaf, 6 days
Procedure: as §1, §2, §3, §4

Myzus persicae = assay: mortality of aphids (MP), contact test; type: in vivo, Myzus persicae (aphids); details: leaf, 2 days
Procedure: as §1, §2, §3, §4

Heliothis viriscens = assay: whole plant or invertebrate; type: in vivo, Heliothis viriscens (tobacco budworm); details: in Gossypium hirsutum, 72 h, read-out: grading of mortality, HV
Procedure: as §1, §2, §3, §4

Musca domestica [2] = assay: knockdown of houseflies (MD/KD); type: in vivo, Musca domestica (houseflies - adults); details: cotton wool/sugar, 4 hours
Procedure: as §1, §2
In case of the species Musca domestica (housefly), additional tests to determine the knockdown effect of the compounds were performed.
as §3, §4

Tetranychus urticae = assay: mortality of red spider mites (TU), contact test; type: in vivo, Tetranychus urticae (red spider mites - adult); details: French bean leaf, 3 days
Procedure: as §1, §2, §3, §4
(red spider mites - adult)

Chilo partellurs = assay: mortality of stem borers (CP), residual test; type: in vivo, Chilo partellurs (Stem borers); details: oil seed rape leaf, 3 days
Procedure: as §1, §2, §3, §4

Blattella germanica = assay: mortality of cockroach nymphs (BG), residual test; type: in vivo, Blattella germanica (cockroach nymphs); details: plastic pot, 3 days
Procedure: as §1, §2, §3, §4

[3] = Diabrotica balteata, in Zea mays, 72 h, 500 ppm, read-out: grading of mortality, DB
[4] = Musca domestica, 24 h, 500 ppm, read-out: grading of mortality, MD
[5] = Nilaparvata lugens, in Brassica oleracea, 144 h, 500 ppm, read-out: grading of mortality, NL
[6] = Myzus persicae, 48 h, 500 ppm, read-out: grading of mortality, MP
[7] = Musca domestica, 500 ppm, read-out: grading of knockdown, MD/KD
[8] = Tetranychus urticae, 72 h, 500 ppm, read-out: grading of mortality, TU
[9] = Chilo, 72 h, 500 ppm, read-out: grading of mortality, CP
[10] = Blattella germanica, 72 h, 500 ppm, read-out: grading of mortality, BG

Row | Compound | mortality at 500 ppm (Diabrotica balteata; [3]) [%] | mortality at 500 ppm (Musca domestica [1]; [4]) [%] | mortality at 500 ppm (Nilaparvata lugens; [5]) [%] | mortality at 500 ppm (Myzus persicae; [6]) [%] | mortality at 500 ppm (Heliothis viriscens) [%] | pest or weed control at 500 ppm (Musca domestica [2]; [7]) [%] | mortality at 500 ppm (Tetranychus urticae; [8]) [%] | mortality at 500 ppm (Chilo partellurs; [9]) [%] | mortality at 500 ppm (Blattella germanica; [10]) [%] | other results
1 | CC(C)(C=Cc1cc(Cl)cc(Cl)c1)COCc1cccc(Oc2ccccc2)c1 [Compound 15, 3,3-Dimethyl-1-(3,5-dichlorophenyl)-4-(3-phenoxybenzyloxy)but-1-ene] | < 50 | < 50 | < 50 | < 50 | < 50 | < 50 | < 50 | 80 to 100 | < 50 | 
2 | CC(C)(C=Cc1ccc(F)cc1)COCc1cccc(Oc2ccccc2)c1 [Compound 11, 3,3-Dimethyl-1-(4-fluorophenyl)-4-(3-phenoxybenzyloxy)but-1-ene] | 50 to 79 | 50 to 79 | 80 to 100 | < 50 | 80 to 100 | 80 to 100 | < 50 | 80 to 100 | < 50 | 
3 | CC(C)(/C=C\c1ccc(F)cc1)COCc1ccc(F)c(Oc2ccccc2)c1 [Compound 5, 3,3-dimethyl-1-(4-fluorophenyl)-4-(4-fluoro-3-phenoxybenzyloxy)but-1-ene] | < 50 | < 50 | < 50 | < 50 | < 50 | < 50 | < 50 | < 50 | < 50 | 
4 | CC(C)(C=Cc1ccc(F)c(F)c1)COCc1cccc(Oc2ccccc2)c1 [Compound 18, 3,3-Dimethyl-1-(3,4-difluorophenyl)-4-(3-phenoxybenzyloxy)but-1-ene] | < 50 | < 50 | < 50 | < 50 | 80 to 100 | < 50 | 50 to 79 | 80 to 100 | < 50 | 
5 | CC(C)(/C=C\c1ccccc1)COCc1ccc(F)c(Oc2ccccc2)c1 [Compound 21, 3,3-Dimethyl-1-phenyl-4-(4-fluoro-3-phenoxybenzyloxy)but-1-ene] |  |  |  |  |  |  |  |  |  | mortality at 100 ppm (Diabrotica balteata; Diabrotica balteata, in Zea mays, 72 h, 100 ppm, read-out: grading of mortality, DB): < 50%; mortality at 100 ppm (Musca domestica [1]; Musca domestica, 24 h, 100 ppm, read-out: grading of mortality, MD): < 50%; mortality at 100 ppm (Nilaparvata lugens; Nilaparvata lugens, in Brassica oleracea, 144 h, 100 ppm, read-out: grading of mortality, NL): < 50%; mortality at 100 ppm (Myzus persicae; Myzus persicae, 48 h, 100 ppm, read-out: grading of mortality, MP): < 50%; mortality at 100 ppm (Heliothis viriscens): < 50%; pest or weed control at 100 ppm (Musca domestica [2]; Musca domestica, 100 ppm, read-out: grading of knockdown, MD/KD): < 50%; mortality at 100 ppm (Tetranychus urticae; Tetranychus urticae, 72 h, 100 ppm, read-out: grading of mortality, TU): < 50%; mortality at 100 ppm (Chilo partellurs; Chilo, 72 h, 100 ppm, read-out: grading of mortality, CP): 80 to 100%; mortality at 100 ppm (Blattella germanica; Blattella germanica, 72 h, 100 ppm, read-out: grading of mortality, BG): < 50%
6 | CC(C)(/C=C\c1ccc(Cl)cc1)COCc1cccc(Oc2ccccc2)c1 [Compound 2, 3,3-Dimethyl-1-(4-chlorophenyl)-4-(3-phenoxybenzyloxy)but-1-ene] | < 50 | < 50 | < 50 | < 50 | < 50 | < 50 | < 50 | 50 to 79 | < 50 | 
7 | CC(C)(CCc1ccc(Cl)cc1)COCc1cccc(Oc2ccccc2)c1 [Compound 34, 3,3-dimethyl-1-(4-chlorophenyl)-4-(3-phenoxybenzyloxy)butane] | < 50 | < 50 | < 50 | < 50 | 80 to 100 | < 50 | 50 to 79 | 80 to 100 | < 50 | 
8 | CC(C)(C=Cc1ccc(Cl)cc1)COCc1ccc(F)c(Oc2ccccc2)c1 [Compound 7, 3,3-Dimethyl-1-(4-chlorophenyl)-4-(4-fluoro-3-phenoxybenzyloxy)but-1-ene] | 80 to 100 | 80 to 100 | < 50 | 80 to 100 | 80 to 100 | 80 to 100 | < 50 | 80 to 100 | < 50 | 
9 | Clc1ccc(/C=C\C2(COCc3cccc(Oc4ccccc4)c3)CC2)cc1 [Compound 23, 1-[2-(4-chlorophenyl)ethen-1-yl]-1-(3-phenoxybenzyloxymethyl)cyclopropane] | < 50 | < 50 | 80 to 100 | < 50 | < 50 | < 50 | < 50 | 80 to 100 | < 50 | 
10 | CC(C)(C=Cc1ccccc1F)COCc1cccc(Oc2ccccc2)c1 [Compound 16, 3,3-Dimethyl-1-(2-fluorophenyl)-4-(3-phenoxybenzyloxy)but-1-ene] | < 50 | < 50 | < 50 | < 50 | < 50 | < 50 | < 50 | < 50 | < 50 | 
11 | CCC(C)(/C=C/c1ccc(Cl)cc1)COCc1cccc(Oc2ccccc2)c1 (stereo not shown) [Compound 25, 3-Ethyl-3-methyl-1-(4-chlorophenyl)-4-(3-phenoxybenzyloxy)but-1-ene] | < 50 | 50 to 79 | 50 to 79 | 50 to 79 | 80 to 100 | < 50 | < 50 |  | 80 to 100 | 
12 | CCOc1ccc(/C=C/C(C)(C)COCc2cccc(Oc3ccccc3)c2)cc1 [Compound 4, 3,3-Dimethyl-1-(4-ethoxyphenyl)-4-(3-phenoxybenzyloxy)but-1-ene] | < 50 | < 50 | < 50 | < 50 | < 50 | < 50 | < 50 | < 50 | < 50 | 
13 | CC(C)(/C=C/c1ccc(F)cc1)COCc1ccc(F)c(Oc2ccccc2)c1 [Compound 6, 3,3-dimethyl-1-(4-fluorophenyl)-4-(4-fluoro-3-phenoxybenzyloxy)but-1-ene] | 80 to 100 | 80 to 100 | 80 to 100 | 80 to 100 | 80 to 100 | 80 to 100 | 50 to 79 | 80 to 100 | 80 to 100 | 
14 | CC(C)(C=Cc1ccc(Cl)cc1)COCc1cccc(Oc2ccccc2)c1 [Compound 13, 3,3-Dimethyl-1-(4-chlorophenyl)-4-(3-phenoxybenzyloxy)but-1-ene] |  |  |  |  |  |  |  |  |  | grading of mortality, DB (Diabrotica balteata; 500 ppm, 4320 min): A (A indicates 80-100% mortality or knockdown); grading of mortality, MD (Musca domestica [1]; 500 ppm): B (B indicates 50-79% mortality or knockdown); grading of mortality, NL (Nilaparvata lugens; 500 ppm, 8640 min): A (A indicates 80-100% mortality or knockdown); grading of mortality, MP (Myzus persicae; 500 ppm, 2880 min): A (A indicates 80-100% mortality or knockdown); grading of knockdown, MD/KD (Musca domestica [2]; 500 ppm): A (A indicates 80-100% mortality or knockdown); grading of mortality, TU (Tetranychus urticae; 500 ppm): B (B indicates 50-79% mortality or knockdown); grading of mortality, CP (Chilo partellurs; 500 ppm): A (A indicates 80-100% mortality or knockdown); grading of mortality, BG (Blattella germanica; 500 ppm): C (C indicates less than 50% mortality or knockdown)
